# Where two headings read alike, the source gives them in different places. Square brackets hold non-standard residues; d marks the D form. Peptide text beside a SMILES is read from it.
# Key:
# [1] = system: C. quillermondiae clinical strains; experiment: MIC, clinical yeast strains; type: cell-based, Candida quillermondiae; set-up: unit: μg/ml; conditions: C. quillermondiae clinical yeast strain 1
# Summary of the method: (§1)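 Antifungal testing uses potato dextrose broth; antibacterial testing uses Mueller Hinton broth. Cell density is set to 5.0×10^5 cfu/ml and incubation runs 20–24 h at 37° C. MIC is the lowest concentration, within 0.125–128 μg/ml, at which no growth is visible.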
# [2] = system: Proteus mirabilis clinical strains; type: cell-based; set-up: Minimum inhibitory concentration: unit: μg/ml; conditions: microdilution, Muller Hinton broth-cation adjusted, 0.02% BSA, 0.2% acetic acid
# Summary of the method: as §1
# [3] = system: Enterobacter cloacae clinical strains; type: cell-based; set-up: Minimum inhibitory concentration: unit: μg/ml; conditions: microdilution, Muller Hinton broth-cation adjusted, 0.02% BSA, 0.2% acetic acid
# Summary of the method: as §1
# [4] = system: Serratia marcescens clinical strains; type: cell-based; set-up: Minimum inhibitory concentration: unit: μg/ml; conditions: microdilution, Muller Hinton broth-cation adjusted, 0.02% BSA, 0.2% acetic acid
# Summary of the method: as §1
# [5] = system: Streptococcus pneumoniae clinical strains; type: cell-based; set-up: Minimum inhibitory concentration: unit: μg/ml; conditions: microdilution, Muller Hinton broth-cation adjusted, 0.02% BSA, 0.2% acetic acid
# Summary of the method: as §1
# [6] = system: Staphylococcus aureus clinical strains; type: cell-based; set-up: Minimum inhibitory concentration: unit: μg/ml; conditions: microdilution, Muller Hinton broth-cation adjusted, 0.02% BSA, 0.2% acetic acid
# Summary of the method: as §1
# [7] = system: Candida albicans clinical strains; experiment: MIC, clinical yeast strains; type: cell-based; set-up: unit: μg/ml
# Summary of the method: as §1
# [8] = system: C. glabrata clinical strains; experiment: MIC, clinical yeast strains; type: cell-based, Candida glabrata; set-up: unit: µg/ml
# Summary of the method: as §1
# [9] = system: C. parapsilosis clinical strains; experiment: MIC, clinical yeast strains; type: cell-based, Candida parapsilosis; set-up: unit: µg/ml
# Summary of the method: as §1
# [10] = system: Pseudomonas aeruginosa clinical strains; type: cell-based; conditions: microdilution, Muller Hinton broth-cation adjusted, 0.02% BSA, 0.2% acetic acid
# Summary of the method: as §1
# [11] = system: Klebsiella pneumoniae clinical strains; type: cell-based; conditions: microdilution, Muller Hinton broth-cation adjusted, 0.02% BSA, 0.2% acetic acid
# Summary of the method: as §1
# [12] = system: Escherichia coli clinical strains; type: cell-based; conditions: microdilution, Muller Hinton broth-cation adjusted, 0.02% BSA, 0.2% acetic acid
# Summary of the method: as §1
# [13] = system: Acinetobacter baumannii clinical strains; type: cell-based; set-up: Minimum inhibitory concentration: unit: μg/ml; conditions: microdilution, Muller Hinton broth-cation adjusted, 0.02% BSA, 0.2% acetic acid
# Summary of the method: as §1
# [14] = Proteus mirabilis clinical strain 1
# [15] = Proteus mirabilis clinical strain 2
# [16] = Proteus mirabilis clinical strain 3
# [17] = Proteus mirabilis clinical strain 4
# [18] = Proteus mirabilis clinical strain 5
# [19] = Enterobacter cloacae clinical strain 1
# [20] = Enterobacter cloacae clinical strain 2
# [21] = Enterobacter cloacae clinical strain 3
# [22] = Enterobacter cloacae clinical strain 4
# [23] = Enterobacter cloacae clinical strain 5
# [24] = Serratia marcescens clinical strain 1
# [25] = Serratia marcescens clinical strain 2
# [26] = Serratia marcescens clinical strain 3
# [27] = Serratia marcescens clinical strain 4
# [28] = Serratia marcescens clinical strain 5
# [29] = Streptococcus pneumoniae clinical strain 1
# [30] = Streptococcus pneumoniae clinical strain 2
# [31] = Streptococcus pneumoniae clinical strain 3
# [32] = Streptococcus pneumoniae clinical strain 4
# [33] = Streptococcus pneumoniae clinical strain 5
# [34] = Staphylococcus aureus clinical strain 1
# [35] = Staphylococcus aureus clinical strain 2
# [36] = Staphylococcus aureus clinical strain 3
# [37] = Staphylococcus aureus clinical strain 4
# [38] = Staphylococcus aureus clinical strain 5
# [39] = Candida albicans clinical yeast strain 1
# [40] = Candida albicans clinical yeast strain 2
# [41] = Candida albicans clinical yeast strain 3
# [42] = Candida albicans clinical yeast strain 4
# [43] = Candida albicans clinical yeast strain 5
# [44] = C. glabrata clinical yeast strain 1
# [45] = C. glabrata clinical yeast strain 2
# [46] = C. glabrata clinical yeast strain 3
# [47] = C. glabrata clinical yeast strain 4
# [48] = C. parapsilosis clinical yeast strain 1
# [49] = C. parapsilosis clinical yeast strain 2
# [50] = C. parapsilosis clinical yeast strain 3
# [51] = C. parapsilosis clinical yeast strain 4
# [52] = Pseudomonas aeruginosa clinical strain 1
# [53] = Pseudomonas aeruginosa clinical strain 2
# [54] = Pseudomonas aeruginosa clinical strain 3
# [55] = Pseudomonas aeruginosa clinical strain 4
# [56] = Pseudomonas aeruginosa clinical strain 5
# [57] = Klebsiella pneumoniae clinical strain 1
# [58] = Klebsiella pneumoniae clinical strain 2
# [59] = Klebsiella pneumoniae clinical strain 3
# [60] = Klebsiella pneumoniae clinical strain 4
# [61] = Klebsiella pneumoniae clinical strain 5
# [62] = Escherichia coli clinical strain 1
# [63] = Escherichia coli clinical strain 2
# [64] = Escherichia coli clinical strain 3
# [65] = Escherichia coli clinical strain 4
# [66] = Escherichia coli clinical strain 5
smiles,measurement,setting,value
CC(C)C[C@@H](NC(=O)[C@H](N)CCCCN)C(=O)N[C@H](CCCCN)C(=O)N[C@H](Cc1c[nH]c2ccccc12)C(=O)N[C@H](Cc1ccccc1)C(=O)N[C@H](Cc1c[nH]c2ccccc12)C(=O)N[C@H](CC(C)C)C(=O)N[C@H](Cc1ccccc1)C(=O)N[C@H](CCCCN)C(=O)N[C@H](CCCCN)C(=O)N[C@H](CCCNC(=N)N)C(=O)O [Chain311D] (H-[dK][dL][dK][dW][dF][dW][dL][dF][dK][dK][dR]-OH),Minimum inhibitory concentration,[1],4
same,Minimum inhibitory concentration,[2]; [14],>128
same,Minimum inhibitory concentration,[2]; [15],128
same,Minimum inhibitory concentration,[2]; [16],128
same,Minimum inhibitory concentration,[2]; [17],>128
same,Minimum inhibitory concentration,[2]; [18],>128
same,Minimum inhibitory concentration,[3]; [19],4
same,Minimum inhibitory concentration,[3]; [20],4
same,Minimum inhibitory concentration,[3]; [21],4
same,Minimum inhibitory concentration,[3]; [22],4
same,Minimum inhibitory concentration,[3]; [23],2
same,Minimum inhibitory concentration,[4]; [24],>128
same,Minimum inhibitory concentration,[4]; [25],>128
same,Minimum inhibitory concentration,[4]; [26],>128
same,Minimum inhibitory concentration,[4]; [27],>128
same,Minimum inhibitory concentration,[4]; [28],>128
same,Minimum inhibitory concentration,[5]; [29],16
same,Minimum inhibitory concentration,[5]; [30],8
same,Minimum inhibitory concentration,[5]; [31],16
same,Minimum inhibitory concentration,[5]; [32],4
same,Minimum inhibitory concentration,[5]; [33],8
same,Minimum inhibitory concentration,[6]; [34],1
same,Minimum inhibitory concentration,[6]; [35],1
same,Minimum inhibitory concentration,[6]; [36],1
same,Minimum inhibitory concentration,[6]; [37],1
same,Minimum inhibitory concentration,[6]; [38],1
same,Minimum inhibitory concentration,[7]; [39],8
same,Minimum inhibitory concentration,[7]; [40],8
same,Minimum inhibitory concentration,[7]; [41],8
same,Minimum inhibitory concentration,[7]; [42],16
same,Minimum inhibitory concentration,[7]; [43],16
same,Minimum inhibitory concentration,[8]; [44],16
same,Minimum inhibitory concentration,[8]; [45],16
same,Minimum inhibitory concentration,[8]; [46],8
same,Minimum inhibitory concentration,[8]; [47],64
same,Minimum inhibitory concentration,[9]; [48],16
same,Minimum inhibitory concentration,[9]; [49],8
same,Minimum inhibitory concentration,[9]; [50],8
same,Minimum inhibitory concentration,[9]; [51],8
same,Minimum inhibitory concentration,[10]; [52],16
same,Minimum inhibitory concentration,[10]; [53],8
same,Minimum inhibitory concentration,[10]; [54],16
same,Minimum inhibitory concentration,[10]; [55],8
same,Minimum inhibitory concentration,[10]; [56],4
same,Minimum inhibitory concentration,[11]; [57],8
same,Minimum inhibitory concentration,[11]; [58],8
same,Minimum inhibitory concentration,[11]; [59],4
same,Minimum inhibitory concentration,[11]; [60],8
same,Minimum inhibitory concentration,[11]; [61],4
same,Minimum inhibitory concentration,[12]; [62],2
same,Minimum inhibitory concentration,[12]; [63],2
same,Minimum inhibitory concentration,[12]; [64],1
same,Minimum inhibitory concentration,[12]; [65],0.5
same,Minimum inhibitory concentration,[12]; [66],1
CC[C@@H](C)[C@@H](NC(=O)[C@@H](CC(C)C)NC(=O)[C@@H](CCCNC(=N)N)NC(=O)[C@H](N)CCCNC(=N)N)C(=O)N[C@H](Cc1c[nH]c2ccccc12)C(=O)N[C@H](CCCNC(=N)N)C(=O)N[C@H](CCCNC(=N)N)C(=O)N[C@H](Cc1ccccc1)C(=O)N[C@H](CCCCN)C(=O)N[C@H](Cc1c[nH]c2ccccc12)C(=O)N[C@H](CC(C)C)C(=O)N[C@H](CCCNC(=N)N)C(=O)O [Chain204D] (H-[dR][dR][dL][dI][dW][dR][dR][dF][dK][dW][dL][dR]-OH),Minimum inhibitory concentration,[1],4
same,Minimum inhibitory concentration,[2]; [14],>128
same,Minimum inhibitory concentration,[2]; [15],32
same,Minimum inhibitory concentration,[2]; [16],64
same,Minimum inhibitory concentration,[2]; [17],>128
same,Minimum inhibitory concentration,[2]; [18],>128
same,Minimum inhibitory concentration,[13]; Acinetobacter baumannii clinical strain 1,4
same,Minimum inhibitory concentration,[13]; Acinetobacter baumannii clinical strain 2,4
same,Minimum inhibitory concentration,[13]; Acinetobacter baumannii clinical strain 3,4
same,Minimum inhibitory concentration,[13]; Acinetobacter baumannii clinical strain 4,4
same,Minimum inhibitory concentration,[13]; Acinetobacter baumannii clinical strain 5,4
same,Minimum inhibitory concentration,[3]; [19],4
same,Minimum inhibitory concentration,[3]; [20],8
same,Minimum inhibitory concentration,[3]; [21],4
same,Minimum inhibitory concentration,[3]; [22],8
same,Minimum inhibitory concentration,[3]; [23],2
same,Minimum inhibitory concentration,[4]; [24],>128
same,Minimum inhibitory concentration,[4]; [25],>128
same,Minimum inhibitory concentration,[4]; [26],128
same,Minimum inhibitory concentration,[4]; [27],>128
same,Minimum inhibitory concentration,[4]; [28],>128
same,Minimum inhibitory concentration,[5]; [29],4
same,Minimum inhibitory concentration,[5]; [30],4
same,Minimum inhibitory concentration,[5]; [31],4
same,Minimum inhibitory concentration,[5]; [32],4
same,Minimum inhibitory concentration,[5]; [33],4
same,Minimum inhibitory concentration,[6]; [34],1
same,Minimum inhibitory concentration,[6]; [35],2
same,Minimum inhibitory concentration,[6]; [36],2
same,Minimum inhibitory concentration,[6]; [37],1
same,Minimum inhibitory concentration,[6]; [38],1
same,Minimum inhibitory concentration,[7]; [39],8
same,Minimum inhibitory concentration,[7]; [40],8
same,Minimum inhibitory concentration,[7]; [41],8
same,Minimum inhibitory concentration,[7]; [42],8
same,Minimum inhibitory concentration,[7]; [43],8
same,Minimum inhibitory concentration,[8]; [44],4
same,Minimum inhibitory concentration,[8]; [45],8
same,Minimum inhibitory concentration,[8]; [46],32
same,Minimum inhibitory concentration,[8]; [47],32
same,Minimum inhibitory concentration,[9]; [48],4
same,Minimum inhibitory concentration,[9]; [49],4
same,Minimum inhibitory concentration,[9]; [50],8
same,Minimum inhibitory concentration,[9]; [51],8
same,Minimum inhibitory concentration,[10]; [52],4
same,Minimum inhibitory concentration,[10]; [53],16
same,Minimum inhibitory concentration,[10]; [54],8
same,Minimum inhibitory concentration,[10]; [55],8
same,Minimum inhibitory concentration,[10]; [56],4
same,Minimum inhibitory concentration,[11]; [57],8
same,Minimum inhibitory concentration,[11]; [58],4
same,Minimum inhibitory concentration,[11]; [59],16
same,Minimum inhibitory concentration,[11]; [60],4
same,Minimum inhibitory concentration,[11]; [61],2
same,Minimum inhibitory concentration,[12]; [62],8
same,Minimum inhibitory concentration,[12]; [63],1
same,Minimum inhibitory concentration,[12]; [64],1
same,Minimum inhibitory concentration,[12]; [65],1
same,Minimum inhibitory concentration,[12]; [66],1
